This note sets out measurements from patent US20100184094A1, “USE OF MDCK CELLS IN THE EVALUATION OF CHOLESTEROL MODULATORS” (priority 2007, published 2010).

SMILES strings stand for the structures. Bounds are passed on as bounds.

Assay [1] has as its system surface expression of NPC1L1 in MDCKII cells. Nature of the assay: Effect of lovastatin on surface expression of NPC1L1 ([3H]AS binding) in MDCKII cells. Conditions: 4 μM lovastatin; for effect on [3H]AS binding: cells grown in 5% LPDS, 72 h. Format: cell-based, dog. The protocol: To determine whether the expression pattern of NPC1L1 in MDCKII cells is sensitive to changes in the endogenous concentration of cholesterol, MDCKII cells were seeded and grown in either 10% FBS or 5% lipoprotein deficient serum (5% LPDS) in the absence or presence of the HMG CoA reductase inhibitor, lovastatin.

For assay [2], the target named is T1, human NPC1L1 (Homo sapiens, UniProt Q9UHC9).
T1 construct: expressed in transfected cells
T1 sequence (Q9UHC9 22-1359): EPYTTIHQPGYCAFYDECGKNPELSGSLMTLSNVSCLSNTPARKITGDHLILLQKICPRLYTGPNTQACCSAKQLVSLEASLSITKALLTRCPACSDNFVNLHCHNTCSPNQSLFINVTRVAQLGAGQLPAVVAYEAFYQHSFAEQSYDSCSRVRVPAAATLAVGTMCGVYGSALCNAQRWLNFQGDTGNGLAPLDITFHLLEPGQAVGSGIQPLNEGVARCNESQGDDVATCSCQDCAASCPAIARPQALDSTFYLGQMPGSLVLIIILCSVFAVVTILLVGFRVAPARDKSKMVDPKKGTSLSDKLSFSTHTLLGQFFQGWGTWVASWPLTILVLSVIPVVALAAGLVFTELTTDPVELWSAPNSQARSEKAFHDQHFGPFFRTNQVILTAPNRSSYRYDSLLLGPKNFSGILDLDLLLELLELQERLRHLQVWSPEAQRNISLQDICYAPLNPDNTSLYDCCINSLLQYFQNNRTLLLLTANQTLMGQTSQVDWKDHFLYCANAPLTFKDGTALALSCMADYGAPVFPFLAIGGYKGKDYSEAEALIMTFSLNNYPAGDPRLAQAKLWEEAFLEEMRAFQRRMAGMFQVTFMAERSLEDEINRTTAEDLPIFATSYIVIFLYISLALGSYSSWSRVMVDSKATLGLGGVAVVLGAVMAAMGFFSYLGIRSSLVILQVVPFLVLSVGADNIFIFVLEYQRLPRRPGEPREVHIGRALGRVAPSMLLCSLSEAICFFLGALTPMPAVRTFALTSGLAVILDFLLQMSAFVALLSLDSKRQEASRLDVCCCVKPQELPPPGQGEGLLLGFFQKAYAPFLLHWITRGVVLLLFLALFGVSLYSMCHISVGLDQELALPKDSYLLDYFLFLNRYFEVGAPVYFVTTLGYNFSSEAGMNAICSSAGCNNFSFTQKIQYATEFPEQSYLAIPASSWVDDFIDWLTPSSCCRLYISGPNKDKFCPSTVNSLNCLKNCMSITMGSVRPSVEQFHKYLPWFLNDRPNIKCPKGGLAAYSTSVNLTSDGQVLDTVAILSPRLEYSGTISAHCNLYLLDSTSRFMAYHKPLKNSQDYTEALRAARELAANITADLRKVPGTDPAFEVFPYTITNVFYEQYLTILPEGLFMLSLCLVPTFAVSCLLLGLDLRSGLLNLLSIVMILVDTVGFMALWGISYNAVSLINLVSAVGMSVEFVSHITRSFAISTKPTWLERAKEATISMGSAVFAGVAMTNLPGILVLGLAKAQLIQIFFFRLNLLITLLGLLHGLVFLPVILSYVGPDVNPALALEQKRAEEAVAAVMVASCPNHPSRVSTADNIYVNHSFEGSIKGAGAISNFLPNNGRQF
Put plainly: [3H]AS binding to hNPC1L1/MDCKII-Flp cells. Conditions: FIG. 7D, read-out: Ki inhibition of [3H]AS binding. The protocol:
(§1) rNPC1L1/HEK293 and TsA201 cells were seeded at a density of 10,000 cells per well in 96-well poly-D-lysine coated plates and cells were allowed to attach for approximately 18 h at 37° C. TsA201 cells were subsequently transfected with dog NPC1L1/pcDNA5/FRT according to the manufacturer's instructions (Roche) and incubated for 3 days at 37° C. MDCKII-derived, LLC-PKI, HepG2, or CaCo-2 cells were seeded at a density of 25,000 cells per well in 96-well tissue culture treated plates, and cells were allowed to attach and differentiate for approximately 72 h at 37° C., except for CaCo-2 cells where differentiation took approximately 14 days at 37° C. […] Duplicate samples were averaged for each experimental point. […] Dissociation kinetics were determined by addition of 100 μM EZE-gluc, and incubating for different periods of time. Nonspecific binding was defined in the presence of 100 μM EZE-gluc. At the end of the incubation period, cells were washed twice with 200 μl of pre-warmed DMEM to separate bound from free ligand, 1% SDS was added to the wells followed by 5 ml of Scintillant, and radioactivity associated with cells was determined using a β-counter. […] Thereafter, plates were placed on ice and cells were washed twice with ice-cold PBS, followed by ice-cold acid wash with DMEM, pH 3.5, for 1, 5 or 15 minutes. […] For Transwell experiments, MDCKII cells were seeded at 200,000 cells/well in a 24-well plate and incubated for 3 days at 37° C. […] Thereafter, both apical and basolateral compartments were washed three times with PBS, and the Transwell filter was cut out and its associated radioactivity determined using afi-counter. Data from saturation, competition and ligand dissociation experiments were analyzed as described in the literature; see, Priest, et al., 2004 Biochemistry 43:9866-9876; Knaus et al., 1995 Biochemistry 34:13627-13634. The association rate, k1, was determined by employing the pseudo-first-order rate equation k1=kobs([LR]e/[L][LR]max)) where [LR]max is the concentration of the complex at equilibrium, [L] is the concentration of ligand, [LR]max is the total receptor concentration, kobs is the slope of the pseudo-first order plot, ln([LR]e/([LR]e−[LR]t)) versus time, and [LR]t is the receptor-ligand complex at one given time point t.
To validate MDCKII cells as an appropriate surrogate system for monitoring NPC1L1-dependent processes, we evaluated their ability to perform EZE-sensitive cholesterol flux using a similar protocol to that recently reported. This assay makes use of the ability of βmCD to deplete membrane-bound cholesterol. […]
(§2) To further characterize the [^3H] cholesterol influx process into MDCK cells, the potency of EZE-like compound PS for inhibiting [^3H] cholesterol uptake was determined.

Assay [3] concerns the target T1, human NPC1L1. Nature of the assay: [3H]cholesterol flux into hNPC1L1/MDCKII-Flp cells. Format: cell-based. The following applies: hNPC1L1/MDCKII-Flp, FIG. 7D; read-out: IC50 block of [3H]cholesterol flux. The protocol:
Flux assays were performed essentially as described by Yu et al., 2006 J Biol. Chem. 281:6616-6624. Briefly, cell growth medium was completely aspirated and replaced with 200 μl of 5% LPDS containing the appropriate concentration of compound and incubated at 37° C./3 h in a 5% CO2 incubator. Media was subsequently aspirated from cells and cells were incubated in 200 μl of 0-5.5% βmCD dissolved and filtered through a […] filter at 37° C./45 minutes in a 5% CO2 incubator. Media was dumped from cells that were then washed twice with 125 μl of 5% LPDS before media was aspirated and [3H]cholesterol complexed to BSA in 5% LPDS was added; see Yu et al., 2006 J. Biol. Chem. 281:6616-6624. After 45 minute incubation, cells were washed twice with DMEM, thoroughly aspirated and then 1% SDS was added prior to extraction for scintillation counting.
To validate MDCKII cells as an appropriate surrogate system for monitoring NPC1L1-dependent processes, we evaluated their ability to perform EZE-sensitive cholesterol flux using a similar protocol to that recently reported. This assay makes use of the ability of βmCD to deplete membrane-bound cholesterol. Subsequent exposure of cells to [^3H] cholesterol provides a time-dependent flux of this substrate into the cells. […] In an attempt to improve the assay window, a stable MDCKII-Flp cell line over-expressing human NPC1L1, hNPC1L1/MDCKII-Flp, was generated.
as §2

Assay [4] has as its target dog NPC1L1 (Canis lupus familiaris, UniProt A0A8I3RZG1). Nature of the assay: [3H]AS binding to dog NPC1L1 transiently expressed in TsA201 cells. The protocol:
as §1
To further validate this statement, cloned dog NPC1L1 was transiently expressed in TsA201 cells and binding of [^3]AS to these cells was then characterized (FIG. 5 and Table 1).

Assay [5] addresses dog NPC1L1 endogenously expressed in MDCKII cells (Canis lupus familiaris, UniProt A0A8I3RZG1). Nature of the assay: [3H]AS binding to MDCKII cells (saturation, kinetics, competition, acid wash). The protocol:
as §1

Assay [6] addresses T2, rat NPC1L1 (Rattus norvegicus, UniProt Q6T3U3).
T2 construct: expressed in transfected cells
Put plainly: [3H]AS binding to rNPC1L1/HEK293 cells (saturation, kinetics, competition, acid wash). The protocol: rNPC1L1/HEK293 and TsA201 cells were seeded at a density of 10,000 cells per well in 96-well poly-D-lysine coated plates and cells were allowed to attach for approximately 18 h at 37° C. TsA201 cells were subsequently transfected with dog NPC1L1/pcDNA5/FRT according to the manufacturer's instructions (Roche) and incubated for 3 days at 37° C. MDCKII-derived, LLC-PKI, HepG2, or CaCo-2 cells were seeded at a density of 25,000 cells per well in 96-well tissue culture treated plates, and cells were allowed to attach and differentiate for approximately 72 h at 37° C., except for CaCo-2 cells where differentiation took approximately 14 days at 37° C. […] Duplicate samples were averaged for each experimental point. […] To determine the kinetics of ligand association, cells were incubated with [^3H]AS for different periods of time. Dissociation kinetics were determined by addition of 100 μM EZE-gluc, and incubating for different periods of time. Nonspecific binding was defined in the presence of 100 μM EZE-gluc. At the end of the incubation period, cells were washed twice with 200 μl of pre-warmed DMEM to separate bound from free ligand, 1% SDS was added to the wells followed by 5 ml of Scintillant, and radioactivity associated with cells was determined using a β-counter. […] Thereafter, plates were placed on ice and cells were washed twice with ice-cold PBS, followed by ice-cold acid wash with DMEM, pH 3.5, for 1, 5 or 15 minutes. […] For Transwell experiments, MDCKII cells were seeded at 200,000 cells/well in a 24-well plate and incubated for 3 days at 37° C. […] Thereafter, both apical and basolateral compartments were washed three times with PBS, and the Transwell filter was cut out and its associated radioactivity determined using afi-counter. Data from saturation, competition and ligand dissociation experiments were analyzed as described in the literature; see, Priest, et al., 2004 Biochemistry 43:9866-9876; Knaus et al., 1995 Biochemistry 34:13627-13634. The association rate, k1, was determined by employing the pseudo-first-order rate equation k1=kobs([LR]e/[L][LR]max)) where [LR]max is the concentration of the complex at equilibrium, [L] is the concentration of ligand, [LR]max is the total receptor concentration, kobs is the slope of the pseudo-first order plot, ln([LR]e/([LR]e−[LR]t)) versus time, and [LR]t is the receptor-ligand complex at one given time point t.
Incubation of rNPC1L1/HEK293 cells with 5 nM [311]AS results in a time-dependent association of ligand with cells that reaches equilibrium in ˜3 h (FIG. 1B). The nonspecific binding component is time-independent and has been subtracted from the experimental data. A semilogarithmic transformation of the data yielded a linear dependence (FIG. 1B, inset), as expected for a pseudo-first order reaction, and the slope of this line gives kobs of 0.0208 min^−1. The association rate constant, k1, calculated as described under Example 3, is 2.4×10^6 M^−1 min^−1.
Ki values, determined as described above, are presented in Table 1 below and display the expected rank order of potency for interaction of these ligands with rat NPC1L1; Garcia-Calvo et al., 2005 Proc. Natl. Acad. Sci. USA 102:8132-8137.
Such an approach has previously been previously used to characterize cell surface, non-covalent interactions; Hopkins & Trowbridge, 1983 J. Cell Biol. 97:508-521; Chen et al., 1998 Proc. Natl. Acad. USA 95:6373-6378.

Sequence of dog NPC1L1 endogenously expressed in MDCKII cells (A0A8I3RZG1 entry or part of it): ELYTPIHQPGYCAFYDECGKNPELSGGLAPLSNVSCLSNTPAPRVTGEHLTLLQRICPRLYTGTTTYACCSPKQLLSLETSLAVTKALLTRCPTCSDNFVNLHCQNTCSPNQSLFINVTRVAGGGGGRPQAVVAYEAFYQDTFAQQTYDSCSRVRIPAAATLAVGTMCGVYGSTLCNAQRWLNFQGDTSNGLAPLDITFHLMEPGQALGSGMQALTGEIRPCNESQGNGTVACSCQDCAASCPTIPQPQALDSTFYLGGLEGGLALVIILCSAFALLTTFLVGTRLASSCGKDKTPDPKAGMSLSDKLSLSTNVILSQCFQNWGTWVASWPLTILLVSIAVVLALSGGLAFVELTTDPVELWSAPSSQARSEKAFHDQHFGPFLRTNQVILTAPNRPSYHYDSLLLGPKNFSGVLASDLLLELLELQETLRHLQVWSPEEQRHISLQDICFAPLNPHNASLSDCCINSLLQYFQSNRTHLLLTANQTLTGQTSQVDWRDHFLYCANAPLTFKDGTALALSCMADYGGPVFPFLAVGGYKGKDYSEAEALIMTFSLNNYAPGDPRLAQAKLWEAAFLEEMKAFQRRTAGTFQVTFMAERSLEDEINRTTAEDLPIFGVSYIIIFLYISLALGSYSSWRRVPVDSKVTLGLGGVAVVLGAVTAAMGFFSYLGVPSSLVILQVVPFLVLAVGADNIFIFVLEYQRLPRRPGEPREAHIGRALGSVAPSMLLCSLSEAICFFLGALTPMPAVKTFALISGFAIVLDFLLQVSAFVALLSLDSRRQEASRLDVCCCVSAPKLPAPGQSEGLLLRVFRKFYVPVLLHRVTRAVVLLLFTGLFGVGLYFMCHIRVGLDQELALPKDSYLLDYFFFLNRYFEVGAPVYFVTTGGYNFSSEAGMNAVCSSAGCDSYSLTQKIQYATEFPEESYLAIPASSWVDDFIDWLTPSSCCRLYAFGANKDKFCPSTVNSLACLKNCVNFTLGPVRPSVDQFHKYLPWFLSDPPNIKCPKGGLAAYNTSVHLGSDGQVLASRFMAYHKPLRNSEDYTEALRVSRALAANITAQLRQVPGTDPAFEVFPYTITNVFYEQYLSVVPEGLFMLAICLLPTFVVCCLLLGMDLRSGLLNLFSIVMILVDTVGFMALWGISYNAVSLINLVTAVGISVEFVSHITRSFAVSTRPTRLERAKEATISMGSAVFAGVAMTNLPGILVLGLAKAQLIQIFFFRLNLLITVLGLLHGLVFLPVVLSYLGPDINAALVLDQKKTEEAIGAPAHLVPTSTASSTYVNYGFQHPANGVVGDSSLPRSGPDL
Sequence of dog NPC1L1 (A0A8I3RZG1 entry or part of it): as above

As to `CC[C@H](C)C(=O)O[C@H]1C[C@@H](C)C=C2C=C[C@H](C)[C@H](CC[C@@H]3C[C@@H](O)CC(=O)O3)[C@H]21` [lovastatin], the entries for the “effect on [3H]AS binding” value in assay [1] and in assay [1] (listed as Lovastatin) were “doubles” and “increase”, respectively. For the same compound, the “effect on surface expression of NPC1L1” value in assay [1] (cells grown in 10% FBS) is recorded as “does not cause any significant effect”.
In the case of `O=C(O)C1OC(Oc2ccc(C3C(CCC(O)c4ccc(F)cc4)C(=O)N3c3ccc(F)cc3)cc2)C(O)C(O)C1O` (single isomer, unassigned; ent-1) [ent-1], the Ki in assay [2] was over 100 µM. In assay [3], the IC50 is over 100 µM.
With `CS(=O)(=O)NCCCc1ccc(N2C(=O)[C@H](CC[C@H](O)c3ccc(F)cc3)[C@H]2c2ccc(O[C@@H]3O[C@H](C(=O)O)[C@@H](O)[C@H](O)[C@H]3O)cc2)cc1` [AS, 4-[(2S,3R)-3-[(3S)-3-(4-fluorophenyl)-3-hydroxypropyl]-1-(4-{3-[(methylsulfonyl)amino]propyl}phenyl)-4-oxoazetidin-2-yl]phenyl β-D-gluteopyranosiduronic acid], the half-inhibitory concentration (IC50) in assay [4] (4.65 nM [3H]AS, 4 h, 37° C., read-out: IC50 inhibition of [3H]AS binding) worked out at 3.79 nM; in assay [5] (5.49 nM [3H]AS, 4 h, 37° C., read-out: IC50 inhibition of [3H]AS binding), 2.86 nM; in assay [6] (5.36 nM [3H]AS, 4 h, 37° C., read-out: IC50 inhibition of [3H]AS binding), 5.25 nM. For the same compound, the Kd was 2.15 ± 0.39 nM in assay [4] (dog NPC1L1/TsA201 cells, read-out: Kd (saturation binding)); 0.59 ± 0.07 nM in assay [5] (MDCKII cells, increasing [3H]AS, 4 h, 37° C.); 4.62 ± 0.69 nM in assay [6] (rNPC1L1/HEK293 cells, increasing [3H]AS, 4 h, 37° C., read-out: Kd (equilibrium dissociation constant, saturation binding)). The Ki is 1 ± 0.11 nM in assay [4] (dog NPC1L1/TsA201 cells, read-out: Ki (competition with [3H]AS)); 0.34 ± 0.04 nM in assay [5] (MDCKII cells); 2.35 ± 0.49 nM in assay [6] (rNPC1L1/HEK293 cells).
